Among the test systems are LOX IMVI melanoma; DU-145 prostate; SR leukemia; SK-MEL-2 melanoma; NCI/ADR-RES ovarian; UO-31 renal; 786-0 renal; MDA-N; OVCAR-8 ovarian.
What all share (test): NCI-60 cell line screen, 48 h

“And” between values parts separate entries of the source, which are not always exact repeats. Equal entries are not always repeated.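 Test compounds were applied to cells in 96-well plates for 48 hours at 5 doses. GI50: concentration for 50% inhibition of growth. TGI: total growth inhibition.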

This note sets out measurements from PubChem BioAssay (NCI).

`O=c1c2ccccc2c2c1c1c3ccccc3c(=O)c1c1c3ccccc3c(=O)c21`: the TGI with LOX IMVI melanoma, in the assay on DU-145 prostate, in the assay with SR leukemia, with SK-MEL-2 melanoma, with NCI/ADR-RES ovarian and in the assay on UO-31 renal was above 100 µM in each case. The TGI with 786-0 renal, in the assay on MDA-N and in the assay with OVCAR-8 ovarian was above 100 µM each time.

As for `CC(=O)O[C@H]1[C@@H](OC2CCCC2(c2ccccc2)c2ccccc2)O[N+]([O-])=C[C@@]12COCc1cc3c(cc12)OCO3` (some centres undefined), the TGI in the assay on LOX IMVI melanoma is above 26.6 µM; with DU-145 prostate it was above 100 µM; with SR leukemia, above 23.6 µM; in the assay on NCI/ADR-RES ovarian, 14.9 µM; with UO-31 renal it was 14.1 µM; in the assay on 786-0 renal it was 22 µM. Further, the TGI in the assay with MDA-N and with OVCAR-8 ovarian was above 100 µM throughout.

With `OCCCCn1cc(Cn2ncc3c(SCc4ccccc4)ncnc32)nn1`, the TGI is above 100 µM in the assay on LOX IMVI melanoma; above 100 µM in the assay with DU-145 prostate; 85.4 µM in the assay on SR leukemia; above 100 µM in the assay on SK-MEL-2 melanoma; above 100 µM in the assay on NCI/ADR-RES ovarian; above 100 µM in the assay with UO-31 renal. Further, the TGI was above 100 µM in the assay on 786-0 renal, 39.2 µM in the assay on MDA-N and above 100 µM in the assay with OVCAR-8 ovarian.

For the compound `O=c1[nH]c(=O)n(C2OC(CO)C(O)C2O)cc1OCCc1ccccc1` (centres undefined), the TGI in the assay with LOX IMVI melanoma, in the assay with DU-145 prostate, in the assay with SR leukemia, in the assay on SK-MEL-2 melanoma, with NCI/ADR-RES ovarian and in the assay on 786-0 renal was above 100 µM in each case. Further, the TGI with MDA-N and with OVCAR-8 ovarian was above 100 µM throughout.

Regarding `CN(C)CS/C(N)=N\C(O)C(Cl)(Cl)Cl` (centres undefined), the TGI with LOX IMVI melanoma, in the assay on DU-145 prostate, with SR leukemia, with SK-MEL-2 melanoma, in the assay on NCI/ADR-RES ovarian and in the assay with UO-31 renal was above 100 µM throughout. Also, the TGI in the assay with 786-0 renal, with MDA-N and with OVCAR-8 ovarian was above 100 µM each time.

Regarding `CCOC(=O)/C=C(\C(=O)OCC)n1cnc2c(N)ncnc21`, the TGI worked out at 11.9 µM in the assay on LOX IMVI melanoma; 29.1 µM in the assay with DU-145 prostate; 4.25 µM with SR leukemia; 30.7 µM with SK-MEL-2 melanoma; 37 µM with NCI/ADR-RES ovarian; 30 µM in the assay on UO-31 renal. The TGI was 10.2 µM in the assay with 786-0 renal, 29.3 µM with MDA-N and 18.1 µM in the assay with OVCAR-8 ovarian.

Regarding `CC(=O)N1CC[N+](C)(CCCCN2c3ccccc3Sc3cc(N=[N+]=[N-])ccc32)CC1`, the TGI in the assay on LOX IMVI melanoma, in the assay with DU-145 prostate, in the assay with SR leukemia, in the assay on SK-MEL-2 melanoma, in the assay with NCI/ADR-RES ovarian and in the assay with UO-31 renal was above 100 µM each time. Also, the TGI in the assay with 786-0 renal, in the assay on MDA-N and with OVCAR-8 ovarian was above 100 µM each time.

With `O=C1N(CN2CCOCC2)CN(CN2CCOCC2)C(=O)N1Cc1ccccc1`, the TGI in the assay with LOX IMVI melanoma amounted to 33 µM; in the assay with DU-145 prostate, 63.9 µM; in the assay on SR leukemia, 40.7 µM; with SK-MEL-2 melanoma, 32.2 µM; in the assay with NCI/ADR-RES ovarian, 61.7 µM; in the assay on UO-31 renal it was 68.6 µM. The values for the TGI with 786-0 renal, in the assay with MDA-N and in the assay with OVCAR-8 ovarian were 71.8 µM, 33.3 µM and 43.4 µM, respectively.

Take `Fc1ccc(NCn2nc(COc3ccccc3Cl)n(/N=C/c3ccc(-c4ccc(Cl)cc4Cl)o3)c2=S)cc1Cl`: the TGI is above 100 µM in the assay on LOX IMVI melanoma; above 100 µM in the assay with DU-145 prostate; 36.8 µM in the assay with SR leukemia; 62.6 µM with SK-MEL-2 melanoma; above 100 µM in the assay with NCI/ADR-RES ovarian; above 100 µM in the assay on UO-31 renal. The TGI in the assay with 786-0 renal, in the assay with MDA-N and in the assay on OVCAR-8 ovarian was above 100 µM each time.

Take `Cc1nn(-c2ccccc2)c2c1C(c1cc3ccccc3nc1Cl)NC(=S)N2` (centres undefined): the TGI in the assay with LOX IMVI melanoma is 56.6 µM; in the assay with DU-145 prostate it was above 100 µM; in the assay with SR leukemia it was above 100 µM; with SK-MEL-2 melanoma it was 44.8 µM; with NCI/ADR-RES ovarian, above 100 µM; with UO-31 renal, 50.4 µM. Also, the TGI with 786-0 renal is above 100 µM; in the assay on MDA-N it was above 100 µM; in the assay with OVCAR-8 ovarian it was 82.2 µM.

Turning to `CCOC(=O)NC(NNc1ccc([N+](=O)[O-])cc1[N+](=O)[O-])(C(F)(F)F)C(F)(F)F`, the TGI in the assay with LOX IMVI melanoma was above 100 µM; with DU-145 prostate, above 100 µM; in the assay with SR leukemia, 60.6 µM; with SK-MEL-2 melanoma it was above 100 µM; with NCI/ADR-RES ovarian, above 100 µM; with UO-31 renal it was 57.6 µM. Further, the TGI with 786-0 renal, with MDA-N and in the assay with OVCAR-8 ovarian was above 100 µM in each case.

`O=Cc1[nH]c(=O)[nH]c(=O)c1CCl`: the TGI in the assay with LOX IMVI melanoma was above 81.7 µM; in the assay on DU-145 prostate, above 100 µM; in the assay on SR leukemia, 57.7 µM; with SK-MEL-2 melanoma, above 100 µM; in the assay with NCI/ADR-RES ovarian, above 100 µM; in the assay on UO-31 renal it was above 100 µM. Further, the TGI in the assay on 786-0 renal, with MDA-N and with OVCAR-8 ovarian was above 100 µM throughout.

In the case of `CC(=O)N1C(C(=O)NNc2ccccc2)CSC1c1ccccc1` (centres undefined), the TGI in the assay with LOX IMVI melanoma, with DU-145 prostate, in the assay on SR leukemia, in the assay on SK-MEL-2 melanoma, in the assay with NCI/ADR-RES ovarian and with UO-31 renal was above 100 µM in each case. Further, the TGI in the assay with 786-0 renal, with MDA-N and in the assay with OVCAR-8 ovarian was above 100 µM throughout.

`Cn1c(=O)c2nc3nnc(C#N)c(N)n3c2n(C)c1=O`: the TGI in the assay with DU-145 prostate, in the assay on SR leukemia, in the assay on SK-MEL-2 melanoma, in the assay with NCI/ADR-RES ovarian, in the assay with UO-31 renal and in the assay with 786-0 renal was above 100 µM throughout. Besides, the TGI with MDA-N and in the assay with OVCAR-8 ovarian was above 100 µM throughout.

As for `COc1cc(/C=C/c2sc3ccccc3[n+]2C)ccc1N(C)C`, the TGI is 31.9 µM in the assay on LOX IMVI melanoma; 35 µM with DU-145 prostate; 7.71 µM and 36.3 µM in the assay on SR leukemia; 8.31 µM and 29.3 µM with SK-MEL-2 melanoma; above 100 µM in the assay with NCI/ADR-RES ovarian; 24.8 µM in the assay with 786-0 renal. In the assay on MDA-N, this compound came in with a TGI of 22.2 µM. In addition, the GI50 was 6.85 µM in the assay with SR leukemia, 12.4 µM in the assay with SK-MEL-2 melanoma, above 100 µM in the assay on NCI/ADR-RES ovarian and 7.11 µM in the assay with MDA-N.
